Tests used:
[1] = test system: Human immunodeficiency virus 1; test: Antiviral activity against HIV1 IIIB infected human MT4 cells assessed as protection against virus-induced cytopathic effect by MTT assay; format: functional, organism-based; conditions: Human immunodeficiency virus 1, IIIB
[2] = test system: Human immunodeficiency virus 1; test: Anti-viral activity against HIV1 harboring RT Y188L mutant infected […] cells assessed as protection against virus-induced cytopathic effect by MTT assay; format: functional, organism-based; conditions: Human immunodeficiency virus 1, MT4
[3] = target: Human immunodeficiency virus type 1 reverse transcriptase (Human immunodeficiency virus 1, UniProt Q72547); test: Inhibition of recombinant wild-type HIV1 p66/p51 reverse transcriptase assessed as inhibition of [3H][…] incorporation using poly (rA) as templates incubated for 40 mins by spectrofluorometer
[4] = Selectivity index, ratio of CC50 for mock infected human MT4 cells to IC50 for HIV1 IIIB infected human MT4 cells
[5] = test system: Human immunodeficiency virus 1; test: Anti-viral activity against HIV1 harboring RT E138K mutant infected […] cells assessed as protection against virus-induced cytopathic effect by MTT assay; format: functional, organism-based; conditions: Human immunodeficiency virus 1, MT4
[6] = Cytotoxicity against mock infected human MT4 cells by MTT assay
[7] = test system: Human immunodeficiency virus 1; test: Anti-viral activity against HIV1 harboring RT Y181C mutant infected […] cells assessed as protection against virus-induced cytopathic effect by MTT assay; format: functional, organism-based; conditions: Human immunodeficiency virus 1, MT4
[8] = test system: Human immunodeficiency virus 1; test: Anti-viral activity against HIV1 harboring RT K103N mutant infected […] cells assessed as protection against virus-induced cytopathic effect by MTT assay; format: functional, organism-based; conditions: Human immunodeficiency virus 1, MT4
[9] = test system: Human immunodeficiency virus 1; test: Anti-viral activity against HIV1 harboring RT L100I mutant infected […] cells assessed as protection against virus-induced cytopathic effect by MTT assay; format: functional, organism-based; conditions: Human immunodeficiency virus 1, MT4
[10] = Solubility of compound in PBS at pH 4.5 by HPLC-UV analysis; format: physicochemical; conditions: PBS, read-out: solubility
[11] = Aqueous solubility of compound in PBS at pH 7 by HPLC-UV analysis
[12] = Aqueous solubility of compound in PBS at pH 7.4 by HPLC-UV analysis
[13] = Oral bioavailability in Sprague-Dawley rat at 5 mg/kg by LCMS analysis; format: ADME, organism-based; conditions: in vivo

| solubility [10] | bioavailability [13] | solubility ([11]; buffer) | solubility ([12]; buffer) | Structure (SMILES) | EC50 [1] | EC50 [2] | IC50 [3] | selectivity ratio [4] | EC50 [5] | CC50 [6] | EC50 [7] | EC50 [8] | EC50 [9] | solubility ([11]; PBS) | solubility ([12]; PBS) |
| --- | --- | --- | --- | --- | --- | --- | --- | --- | --- | --- | --- | --- | --- | --- | --- |
| – | – | – | – | Cc1cc(C#Cc2ccccn2)cc(C)c1Oc1ccnc(Nc2ccc(C#N)cc2)n1 | 3 nM | – | – | – | – | – | – | – | – | – | – |
| – | – | – | – | N#Cc1ccc(Nc2nccc(Nc3c(F)cc(-c4ccncc4F)cc3F)n2)cc1 | 1.3 nM | 92 nM | 9.1 nM | 2570 | 2.3 nM | 3300 nM | 7 nM | 1.9 nM | 7.4 nM | – | – |
| – | – | – | – | N#Cc1ccc(Nc2nccc(Nc3c(F)cc(-c4ccnc(F)c4)cc3F)n2)cc1 | 3.8 nM | 1260 nM | 11 nM | 1310 | 14.3 nM | 5000 nM | 80 nM | 42 nM | 397 nM | – | – |
| – | – | – | – | N#Cc1ccc(Nc2nccc(Nc3c(F)cc(-c4ccnc(C#N)c4F)cc3F)n2)cc1 | 2 nM | 18300 nM | 11 nM | > 143000 | 11 nM | > 282000 nM | 42 nM | 14 nM | 80 nM | – | – |
| – | – | – | – | N#Cc1ccc(Nc2nccc(Nc3c(F)cc(-c4ccnc(Cl)c4Cl)cc3F)n2)cc1 | 5.5 nM | 1640 nM | 16 nM | 3670 | 39 nM | 20000 nM | 73 nM | 48 nM | 325 nM | – | – |
| – | – | – | – | N#Cc1ccc(Nc2nccc(Nc3c(F)cc(-c4coc5ccccc45)cc3F)n2)cc1 | 44 nM | 6340 nM | 28 nM | 1990 | 335 nM | 87000 nM | 2750 nM | 1300 nM | 3450 nM | – | – |
| – | – | – | – | Cc1cc(C#Cc2ccccc2)cc(C)c1Oc1ccnc(Nc2ccc(C#N)cc2)n1 | 38 nM | – | – | – | – | – | – | – | – | – | – |
| – | – | – | – | N#Cc1ccc(Nc2nccc(Nc3c(F)cc(-c4ccnc(Cl)c4)cc3F)n2)cc1 | 6.8 nM | > 1540 nM | 14 nM | 622 | 61 nM | 4200 nM | 254 nM | 101 nM | 415 nM | – | – |
| – | – | – | – | Cc1cc(-c2cc(F)c(Nc3ccnc(Nc4ccc(C#N)cc4)n3)c(F)c2)cc(C)n1 | 56 nM | – | 336 nM | 21 | – | 1200 nM | – | – | – | – | – |
| – | – | – | – | N#Cc1ccc(Nc2nccc(Nc3c(F)cc(-c4ccoc4)cc3F)n2)cc1 | 3.2 nM | 2180 nM | 10 nM | 3290 | 13 nM | 10600 nM | 114 nM | 35 nM | 100 nM | – | – |
| – | – | – | – | N#Cc1ccc(Nc2nccc(Nc3c(F)cc(-c4cc(Cl)nc(Cl)c4)cc3F)n2)cc1 | 56 nM | – | 96 nM | 97 | 311 nM | 5400 nM | – | 1090 nM | – | – | – |
| > 200 µM | – | – | – | O=c1c2nc([N+](=O)[O-])cn2ccn1Cc1cccnc1 | – | – | – | – | – | – | – | – | – | – | – |
| – | – | – | – | N#Cc1ccc(Nc2nccc(Nc3c(F)cc(-c4cccs4)cc3F)n2)cc1 | 4.1 nM | 1130 nM | 5.9 nM | > 74600 | 11 nM | > 308000 nM | 136 nM | 102 nM | 363 nM | – | – |
| – | – | – | – | O=C1Nc2ccc(Cl)cc2[C@@](C#CC2CC2)(C(F)(F)F)O1 [EFAVIRENZ] | – | 269 nM | – | – | 7.5 nM | > 6330 nM | – | – | – | – | – |
| – | – | – | – | Cc1cc(C#N)cc(C)c1Oc1nc(Nc2ccc(C#N)cc2)nc(N)c1Br [ETRAVIRINE] | – | 29.3 nM | – | – | – | > 4600 nM | – | 3.4 nM | – | < 1 µg/mL | < 1 µg/mL |
| – | – | – | – | Cc1ccnc2c1NC(=O)c1cccnc1N2C1CC1 [NEVIRAPINE] | – | – | – | – | 288 nM | > 15000 nM | – | – | – | – | – |
| – | 32% | – | – | Cc1cc(/C=C/C#N)cc(C)c1Nc1ccnc(Nc2ccc(C#N)cc2)n1.Cl [RILPIVIRINE HYDROCHLORIDE] | – | – | – | – | – | – | – | – | – | – | – |
| – | – | < 1 µg/mL | < 1 µg/mL | Cc1cc(/C=C/C#N)cc(C)c1Nc1ccnc(Nc2ccc(C#N)cc2)n1 [RILPIVIRINE] | – | – | – | – | – | – | – | – | – | – | – |
